This note sets out measurements from patent US10577362B2, “Substituted 2, 4-diamino-quinoline derivatives for use in the treatment of proliferative diseases” (GENOSCIENCE PHARMA, priority 2016, dated 2020).

Structures can show the parent of a compound that is named as a salt.

Holding throughout (assay type): cell-based, human
In assay [1] the test system is MOLM-14 (acute myeloid leukemia) cell line. Kind of assay: CellTiter-Glo luminescent cell viability assay, MOLM-14. The settings on record: Homo sapiens; for EC50: MOLM-14 cell line, 72 h incubation, CellTiter-Glo, read-out: EC50, growth inhibition of MOLM-14; for viability at 4 µM: MOLM-14, compound at 4 μM; for viability at 4 µM / viability at 10 µM: 72 h; for viability at 10 µM: MOLM-14, compound at 10 μM. The method in brief: (§1)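 Adherent cells grow overnight, or suspension cells are seeded 1 h ahead; compound dilutions are then added and plates incubated 72 h at 37 °C. After 30 min at room temperature, CellTiter-Glo reagent is added and luminescence recorded. EC50 derives from signal relative to diluent control.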
A general note: ATP-based viability assays read luminescence as a measure of living cells.

Assay [2] concerns A375 (malignant melanoma) cell line. As to the kind of experiment: CellTiter-Glo luminescent cell viability assay, A375. The settings on record: Homo sapiens, A-375; for EC50: A375 cell line, 72 h incubation, CellTiter-Glo, read-out: EC50, growth inhibition of A375; for viability at 4 µM: A375, compound at 4 μM; for viability at 4 µM / viability at 10 µM: 72 h; for viability at 10 µM: A375, compound at 10 μM. The method in brief: (§2)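 Luminescent signal, normalised to diluent-treated cultures, defines % viability; EC50 is the concentration lowering it to 50%. Cells had been exposed to compound for 72 h at 37 °C in medium with 10% FBS, at a constant H2O or DMSO percentage.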

The test system of assay [3] is HCT-116 (colorectal carcinoma) cell line. Kind of assay: CellTiter-Glo luminescent cell viability assay, HCT-116. The settings on record: Homo sapiens; for EC50: HCT-116 cell line, 72 h incubation, CellTiter-Glo, read-out: EC50, growth inhibition of HCT-116; for viability at 4 µM: HCT-116, compound at 4 μM; for viability at 4 µM / viability at 10 µM: 72 h; for viability at 10 µM: HCT-116, compound at 10 μM. The method in brief: as §2

Assay [4] has as its system Huh7 (hepatocellular carcinoma) cell line. As to the kind of experiment: CellTiter-Glo luminescent cell viability assay, Huh7. To be noted: Homo sapiens, Huh-7; for EC50: Huh7 cell line, 72 h incubation, CellTiter-Glo, read-out: EC50, growth inhibition of Huh7; for viability at 4 µM: Huh7, compound at 4 μM; for viability at 4 µM / viability at 10 µM: 72 h; for viability at 10 µM: Huh7, compound at 10 μM. In outline:
as §1

Assay [5] deals with 786-O (renal adenocarcinoma) cell line. As to the kind of experiment: CellTiter-Glo luminescent cell viability assay, 786-O. To be noted: Homo sapiens, 786-0; for EC50: 786-O cell line, 72 h incubation, CellTiter-Glo, read-out: EC50, growth inhibition of 786-O; for viability at 4 µM / viability at 10 µM: 786-O, 72 h; for viability at 4 µM: compound at 4 μM; for viability at 10 µM: compound at 10 μM. The method in brief:
as §2

The test system of assay [6] is HepG2 (hepatocellular carcinoma) cell line. Kind of assay: CellTiter-Glo luminescent cell viability assay, HepG2. To be noted: Homo sapiens; for EC50: HepG2 cell line, 72 h incubation, CellTiter-Glo, read-out: EC50, growth inhibition of HepG2; for viability at 4 µM / viability at 10 µM: HepG2, HepG, 72 h; for viability at 4 µM: compound at 4 μM; for viability at 10 µM: compound at 10 μM. The method in brief: as §1

A word on the EC50: it is the concentration giving half of the maximal effect. As to `CC(C)(C)NC1CCN(c2c(F)c(NCc3ccc(Cl)cc3)nc3ccccc23)CC1` [Compound 348, 2-(4-chlorobenzylamino)-3-fluoro-4-[4-(tert-butylamino)piperidin-1-yl]quinoline Hydrochloride Salt], the EC50 in assay [1] was 0.5 to 5 µM; in assay [2], 0.5 to 5 µM; in assay [3], 0.5 to 5 µM; in assay [4], 5 to 10 µM; in assay [5], 0.5 to 5 µM; in assay [6], 0.5 to 5 µM.
As usually defined, the viability is a read-out of living cells in per cent, often relative to untreated cells. For the molecule `Cc1cc(Nc2nc3ccccc3c(N3CCC(NC(C)(C)C)CC3)c2C#N)ccc1Nc1ccnc(-c2cccnc2)n1` [Compound 522CN, 2-{3-methyl-4-[2-(pyridin-3-yl)pyrimidin-4-ylamino]phenylamino}-3-cyano-4-(4-tert-butylaminopiperidin-1-yl)quinoline], the viability at 4 µM in assay [1] amounted to 0.3%; in assay [2], 0.3%; in assay [3], 0.3%; in assay [4], 0.4%; in assay [5], 0.2%; in assay [6], 0.3%. For the same molecule, the viability at 10 µM worked out at 0.3% in assay [1]; 0.3% in assay [2]; 0.2% in assay [3]; 0.4% in assay [4]; 0.2% in assay [5]; 0.2% in assay [6].
Regarding `Clc1ccc(CNc2cc(N3CC[C@H](Oc4ccccn4)C3)c3ccccc3n2)cc1` [Compound 3098, (3S) 2-(4-chlorobenzylamino)-4-[3-(pyridin-2-yloxy)pyrrolidin-1-yl]quinoline hydrochloride], the half-maximal effective concentration (EC50) in assay [1], in assay [2], in assay [3], in assay [4], in assay [5] and in assay [6] was 0.5 to 5 µM in each case.
Turning to `N#Cc1c(NCc2ccc(Cl)cc2)nc2ccccc2c1N1CCCC(Oc2ccccc2)C1` (centres unmarked) [Compound 3206CN, 2-(4-chlorobenzylamino)-3-cyano-4-(3-phenoxypiperidin-1-yl)quinoline], the viability at 4 µM in assay [1] was 96%; in assay [2], 111%; in assay [3], 97.9%; in assay [4], 107%; in assay [5] it was 79.9%; in assay [6], 72.4%. In addition, the viability at 10 µM amounted to 107% in assay [1]; 104% in assay [2]; 91.2% in assay [3]; 95.1% in assay [4]; 75.1% in assay [5]; 65% in assay [6].
With `Cc1cc(Nc2nc3ccccc3c(N3CCC(NC(C)(C)C)CC3)c2C#N)ccc1Nc1nccc(C(F)(F)F)n1` [Compound 534CN, 2-[3-methyl-4-(4-trifluoromethylpyrimidin-2-ylamino)phenylamino]-3-cyano-4-(4-tert-butylaminopiperidin-1-yl)quinoline], the viability at 4 µM is 0.4% in assay [1]; 0.4% in assay [2]; 0.4% in assay [3]; 49.1% in assay [4]; 2.1% in assay [5]; 13% in assay [6]. The viability at 10 µM is 0.3% in assay [1]; 0.2% in assay [2]; 0.2% in assay [3]; 0.4% in assay [4]; 0.2% in assay [5]; 0.2% in assay [6].
For the molecule `Cc1nccnc1OC1CCN(c2c(C#N)c(NCc3ccc(Cl)cc3)nc3ccccc23)C1` (centres unmarked) [Compound 3362CN, 2-(4-chlorobenzylamin)-3-cyano-4-{3-[(3-methylpyrazin-2-yl)oxy]pyrrolidin-1-yl}quinoline], the viability at 4 µM was 105% in assay [1]; 81.6% in assay [2]; 46.8% in assay [3]; 66.7% in assay [4]; 15.3% in assay [5]; 78.5% in assay [6]. Also, the viability at 10 µM in assay [1] came to 88.6%; in assay [2], 68.6%; in assay [3], 31.4%; in assay [4], 35.1%; in assay [5], 5.6%; in assay [6] it was 52.5%.
As to `Cc1ccc(OC2CCCN(c3c(C#N)c(NCc4ccc(Cl)cc4)nc4ccccc34)C2)cc1` (centres unmarked) [Compound 3234CN, 2-(4-chlorobenzylamino)-3-cyano-4-[3-(4-methylphenoxy)piperidin-1-yl]quinoline], the viability at 4 µM came out at 94.4% in assay [1]; 107% in assay [2]; 93.8% in assay [3]; 99.2% in assay [4]; 89.8% in assay [5]; 89.8% in assay [6]. Besides, the viability at 10 µM in assay [1] turned out to be 92%; in assay [2], 102%; in assay [3] it was 90.7%; in assay [4], 95.5%; in assay [5], 80.5%.
As for `Cc1cc(OC2CCN(c3c(C#N)c(NCc4ccc(Cl)cc4)nc4ccccc34)CC2)no1` [Compound 2978CN, 2-(4-chlorobenzylamino)-3-cyano-4-{4-[(5-methylisoxazol-3-yl)oxy]piperidin-1-yl}quinoline], the viability at 4 µM is 115% in assay [1]; 93.1% in assay [2]; 88.2% in assay [3]; 87% in assay [4]; 96.9% in assay [5]; 94.5% in assay [6]. In addition, the viability at 10 µM in assay [1] came to 77.5%; in assay [2], 86.8%; in assay [3] it was 50.1%; in assay [4], 74.2%; in assay [5], 89.3%; in assay [6], 78.1%.
Take `CC(C)(C)NC1CCN(c2c(C#N)c(Nc3cccc(Nc4nccc(C(F)(F)F)n4)c3)nc3ccccc23)CC1` [Compound 540CN, 2-[3-(4-trifluoromethylpyrimidin-2-ylamino)phenylamino]-3-cyano-4-(4-tert-butylaminopiperidin-1-yl)quinoline]: the EC50 in assay [1] lay in the range of 0.5 to 5 µM; in assay [2] it was 0.5 to 5 µM; in assay [3] it was 0.5 to 5 µM; in assay [4], 0.5 to 5 µM; in assay [5], 0.5 to 5 µM; in assay [6] it was 5 to 10 µM.
Turning to `COC(=O)c1c(NCc2ccc(Cl)cc2)nc2ccccc2c1N1CCC(NC(C)(C)C)CC1` [Compound 354, methyl 4-(4-(tert-butylamino)piperidin-1-yl)-2-(4-chlorobenzylamino) quinoline-3-carboxylate], the EC50 in assay [1] fell in the range of 0.5 to 5 µM; in assay [2], 0.5 to 5 µM; in assay [3], 0.5 to 5 µM; in assay [4], 0.5 to 5 µM; in assay [5] it was 0.5 to 5 µM; in assay [6] it was 5 to 10 µM.
Take `O[C@H]1CCN(c2cc(NCc3ccc(Cl)cc3)nc3ccccc23)C1` [Compound 3060, (3S) 2-(4-chlorobenzylamino)-4-(3-hydroxypyrrolidin-1-yl)-quinoline hydrochloride]: the EC50 lay in the range of 0.5 to 5 µM in assay [1]; 0.5 to 5 µM in assay [2]; 0.5 to 5 µM in assay [3]; 0.5 to 5 µM in assay [4]; 5 to 10 µM in assay [5]; 0.5 to 5 µM in assay [6].
Turning to `Cc1ccc(OC2CCN(c3c(C#N)c(NCc4ccc(Cl)cc4)nc4ccccc34)C2)cc1` (centres unmarked) [Compound 3332CN, 2-(4-chlorobenzylamino)-3-cyano-4-[3-(4-methylphenoxy)pyrrolidin-1-yl]quinoline], the viability at 4 µM in assay [1] is 104%; in assay [2], 108%; in assay [3], 101%; in assay [4], 95.3%; in assay [5] it was 52%; in assay [6], 65.6%. Also, the viability at 10 µM came to 94.1% in assay [1]; 103% in assay [2]; 87.2% in assay [3]; 58.3% in assay [4]; 25% in assay [5]; 62.5% in assay [6].
On to `OC[C@H]1CCCN1c1cc(NCc2ccc(Cl)cc2)nc2ccccc12` [Compound 2380, (2R)-2-(4-chlorobenzylamino)-4-[2-(hydroxymethyl)-pyrrolidin-1-yl]-quinoline hydrochloride], for which the half-maximal effective concentration (EC50) in assay [1] fell in the range of 0.5 to 5 µM; in assay [2] it was 0.5 to 5 µM; in assay [3], 0.5 to 5 µM; in assay [4] it was 0.5 to 5 µM; in assay [5], 5 to 10 µM; in assay [6], 0.5 to 5 µM.
